In a flash point compilation (Sun et al. 2020):

flash point [°C] | Structure (SMILES)
132.00 | C=CC(=O)OCCCCCCCCCCCCC [tridecyl prop-2-enoate]
16.00 | C=C(C)C(=O)OCC [ethyl 2-methylprop-2-enoate]
121.00 | CSCCC(O)C(=O)O (stereo unspecified) [2-hydroxy-4-methylsulfanylbutanoic acid]
74.00 | CCC(O)OCCCOC (stereo unspecified) [1-(3-methoxypropoxy)propan-1-ol]
64.00 | CC1=CCC(=C(C)C)CC1 [1-methyl-4-propan-2-ylidenecyclohexene]
102.00 | OCCCCCCO [hexane-1,6-diol]
26.00 | CC=C1CC2C=CC1C2 (stereo unspecified) [5-ethylidenebicyclo[2.2.1]hept-2-ene]
-23.00 | CCC(C)S (stereo unspecified) [butane-2-thiol]
92.00 | CCOC(N)=O [ethyl carbamate]
250.00 | CC(=O)Oc1ccccc1C(=O)O [2-acetyloxybenzoic acid]
118.00 | CC1(C2CCC3(C)OC3C2)CO1 (stereo unspecified) [1-methyl-4-(2-methyloxiran-2-yl)-7-oxabicyclo[4.1.0]heptane]
101.00 | CCC1CCC(CCC(=O)O)C1 (stereo unspecified) [3-(3-ethylcyclopentyl)propanoic acid]
224.00 | CCCCCCCOC(=O)c1ccccc1C(=O)OCCCCCCC [diheptyl benzene-1,2-dicarboxylate]
94.00 | C=CC(C)(CCC=C(C)C)OC(C)=O (stereo unspecified) [3,7-dimethylocta-1,6-dien-3-yl acetate]
93.00 | CC1(N)CCC(C(C)(C)N)CC1 (stereo unspecified) [4-(2-aminopropan-2-yl)-1-methylcyclohexan-1-amine]
113.00 | CCCCCCCCCCCCCCCCCCCCC [henicosane]
96.00 | C=C(C)C(=O)OCCNC(C)(C)C [2-(tert-butylamino)ethyl 2-methylprop-2-enoate]
137.00 | OCCNCCO [2-(2-hydroxyethylamino)ethanol]
47.00 | Cc1ccc(C(C)C)cc1 [1-methyl-4-propan-2-ylbenzene]
-32.00 | CC(C)Cl [2-chloropropane]
145.00 | c1c[nH]cn1 [1H-imidazole]
-18.00 | COCOC [dimethoxymethane]
107.00 | CCC=CCC1=C(C)CCC1=O [3-methyl-2-pent-2-enylcyclopent-2-en-1-one]
168.00 | Nc1ccccc1O [2-aminophenol]
120.00 | CCCCCCCCCCCCCCCCCCCCCCCCC [pentacosane]
74.00 | OCCS [2-sulfanylethanol]
111.00 | CCCC(CCC)C(=O)O [2-propylpentanoic acid]

flash point [°C] | Structure (SMILES)
113.00 | CC(C)C(O)C(C)(C)CO (stereo unspecified) [2,2,4-trimethylpentane-1,3-diol]
34.00 | CC(=O)CC(C)=O [pentane-2,4-dione]
127.00 | CCCCCCCCCc1ccc(O)c(CCCCCCCCC)c1 [2,4-di(nonyl)phenol]
-19.00 | CCOC(C)(C)C [2-ethoxy-2-methylpropane]
21.00 | C=C(C)C(=O)OC(C)C [propan-2-yl 2-methylprop-2-enoate]
196.00 | CCCCC(CC)COP(=O)(O)OCC(CC)CCCC (stereo unspecified) [bis(2-ethylhexyl) hydrogen phosphate]
127.00 | Oc1ccccc1O [benzene-1,2-diol]
157.00 | O=C(O)c1ccccc1O [2-hydroxybenzoic acid]
81.00 | NCCCCCCN [hexane-1,6-diamine]
99.00 | CCCCN(CCO)CCCC [2-(dibutylamino)ethanol]
83.00 | COC(=O)c1ccccc1 [methyl benzoate]
51.00 | OC1CCCC1 [cyclopentanol]
37.00 | CCC[Si](Cl)(Cl)Cl [trichloro(propyl)silane]
97.00 | C=C(C)C(=O)OCCO [2-hydroxyethyl 2-methylprop-2-enoate]
33.00 | C=C(C)CO [2-methylprop-2-en-1-ol]
113.00 | CCOC(=O)C#Cc1ccccc1 [ethyl 3-phenylprop-2-ynoate]
82.00 | C=C(C#N)C(=O)OCC [ethyl 2-cyanoprop-2-enoate]
200.00 | S=c1[nH]c2ccccc2s1 [3H-1,3-benzothiazole-2-thione]
31.00 | NC1CCCCC1 [cyclohexanamine]
129.00 | CCCCCCC(C)(C)C(=O)OCC1CO1 (stereo unspecified) [oxiran-2-ylmethyl 2,2-dimethyloctanoate]
84.00 | CC1=CC(=O)CC(C)(C)C1 [3,5,5-trimethylcyclohex-2-en-1-one]
48.00 | C=C(C)[C@H]1CC=C(C)CC1 [(4R)-1-methyl-4-prop-1-en-2-ylcyclohexene]
78.00 | CCCCCCCCCS [nonane-1-thiol]
196.00 | CCCCCCCCCCCCCCCCCC(=O)O [octadecanoic acid]
39.00 | CCCCCC(C)=O [heptan-2-one]
58.00 | Cc1ccc(C(C)(C)C)cc1 [1-tert-butyl-4-methylbenzene]
71.00 | CCNCCO [2-(ethylamino)ethanol]

The next lines start with the compound.

Structure (SMILES) | flash point [°C]
O=c1oc2ccccc2c(O)c1C(CC(O)c1ccc(-c2ccc(Br)cc2)cc1)c1ccccc1 (stereo unspecified) | 218.00
C1CCNCC1 [piperidine] | 3.00
CCCCOC(=O)CCC(=O)OCCCC [dibutyl butanedioate] | 135.00
O.c1cc[c]([Sn]([c]2ccccc2)[c]2ccccc2)cc1 [triphenyltin;hydrate] | 400.00
COCCOC(=O)c1ccccc1C(=O)OCCOC [bis(2-methoxyethyl) benzene-1,2-dicarboxylate] | 210.00
CCC[CH2][Sn]([Cl])([Cl])[Cl] [butyl(trichloro)stannane] | 81.00
CCCC(C)Br (stereo unspecified) [2-bromopentane] | 21.00
CCCCOCCOCCSC#N [2-(2-butoxyethoxy)ethyl thiocyanate] | 52.00
CC(N)Cc1ccccc1 (stereo unspecified) [1-phenylpropan-2-amine] | 27.00
Cc1cc(C)cc(N)c1.Cc1ccc(C)c(N)c1.Cc1ccc(N)c(C)c1.Cc1ccc(N)cc1C.Cc1cccc(C)c1N.Cc1cccc(N)c1C | 97.00
CC12CCC(CC1)C(C)(C)O2 [1,3,3-trimethyl-2-oxabicyclo[2.2.2]octane] | 49.00
CCCN(CCC)CCC [N,N-dipropylpropan-1-amine] | 37.00
CCCCN(C)N=O [N-butyl-N-methylnitrous amide] | 32.00
C=CC(=O)OCC(C)O (stereo unspecified) [2-hydroxypropyl prop-2-enoate] | 65.00
CCOP(=S)(OCC)SCSCC | 160.00
CC(C)CC(C)C(C)C.CCCC(C)CC(C)C.CCCCC(C)C(C)C (stereo unspecified) | 24.00
O=C1c2ccccc2C(=O)N1SC1CCCCC1 [2-cyclohexylsulfanylisoindole-1,3-dione] | 177.00
CCSC(=O)N1CCCCCC1 [S-ethyl azepane-1-carbothioate] | 139.00
CCCCCCCC/C=C\CCCCCCCC(=O)O [(Z)-octadec-9-enoic acid] | 189.00
CCCN(CCCl)c1c([N+](=O)[O-])cc(C(F)(F)F)cc1[N+](=O)[O-] | 30.00
CC(=O)C=C(C)C [4-methylpent-3-en-2-one] | 23.00

Structure (SMILES) | flash point [°C]
OCc1ccco1 [furan-2-ylmethanol] | 75.00
CC(Cl)C(=O)O (stereo unspecified) [2-chloropropanoic acid] | 107.00
C=CC(=O)OCCC#N [2-cyanoethyl prop-2-enoate] | 124.00
CCOP(=O)(OCC)OCC [triethyl phosphate] | 116.00
CC(O)COCC(C)O (stereo unspecified) [1-(2-hydroxypropoxy)propan-2-ol] | 138.00
O=C/C=C/c1ccccc1 [(E)-3-phenylprop-2-enal] | 71.00
CN=C=O [methylimino(oxo)methane] | -7.00
CC1(C)C(C(=O)OC(C#N)c2cccc(Oc3ccccc3)c2)C1C(Br)C(Br)(Br)Br (stereo unspecified) | 26.00
c1ccc(-c2ccccc2)cc1 [1,1'-biphenyl] | 113.00
O=C(Cl)c1ccccc1F [2-fluorobenzoyl chloride] | 82.00
CC(C)COC(=O)c1ccccc1C(=O)OCC(C)C [bis(2-methylpropyl) benzene-1,2-dicarboxylate] | 196.00
CCc1cccc(CC)c1CC [1,2,3-triethylbenzene] | 83.00
Cc1cccc(OP(=O)(Oc2cccc(C)c2)Oc2cccc(C)c2)c1 [tris(3-methylphenyl) phosphate] | 210.00
O=[N+]([O-])c1ccc(Cl)c([N+](=O)[O-])c1 [1-chloro-2,4-dinitrobenzene] | 194.00
Cc1ccccc1OP(=O)(Oc1ccccc1C)Oc1ccccc1C [tris(2-methylphenyl) phosphate] | 225.00
CCOC(=O)C1CC(=O)C(=C(O)C2CC2)C(=O)C1 (stereo unspecified) | 133.00
O=C(O)CCl [2-chloroacetic acid] | 150.00
ClC1=C(Cl)C2(Cl)C3C(Cl)C(Cl)CC3C1(Cl)C2(Cl)Cl (stereo unspecified) [1,3,4,7,8,9,10,10-octachlorotricyclo[5.2.1.02,6]dec-8-ene] | 107.00
CN(C)CCC#N [3-(dimethylamino)propanenitrile] | 64.00
C[C@@H]1[C@@H](c2ccc(Cl)cc2)SC(=O)N1C(=O)NC1CCCCC1 | 100.00
ClCCCBr [1-bromo-3-chloropropane] | 57.00
